# Test results: US20110111014A1, “METHODS AND COMPOSITIONS FOR TREATMENT OF NEUROLOGICAL DISORDERS” (Parkinson's Institute, priority 2007, published 2011)
# Counter-ions that a name gives are not always drawn.
# Columns and labels:
# α-synuclein [1] = target: T1, α-synuclein (Homo sapiens, UniProt P37840); assay: Disaggregation Thioflavin T assay; assay type: biochemical; conditions: polyphenol inhibitors
# T1 construct: made in house; host or cells: E. coli BL21(DE3), plasmid pRK172/α-synuclein WT
# α-synuclein [2] = target: T1, α-synuclein; assay: Aggregation inhibition Thioflavin T assay (primary assay); assay type: biochemical; conditions: for Thioflavin T signal / fibril formation by Thioflavin T fluorescence: compared with control samples (FIGS. 1-13); for lagtime for fibrillation: NINDS Collection 2 Library
# α-synuclein [3] = target: T1, α-synuclein; assay: Electron microscopy of fibrils (secondary assay); assay type: biochemical; conditions: figure legends
# α-synuclein [4] = target: T1, α-synuclein; assay: Centrifugation to separate soluble and insoluble protein, SDS-PAGE; assay type: biochemical; conditions: for protein soluble after incubation, SDS PAGE of supernatant vs. total mixture: figure legends
# α-synuclein [5] = target: T1, α-synuclein; assay: SEC HPLC, oligomer formation; assay type: biochemical; conditions: none with control
# α-synuclein [6] = target: T1, α-synuclein; assay: Atomic force microscopy of fibrils; assay type: biochemical; conditions: 45 hours post treatment, compared to control
# Description: Atomic force microscopy (AFM): AFM images were collected with a PicoScan LE system (Molecular Imaging, Phoenix, AZ) equipped with Acoustic AC mode (Tapping mode) for ex-situ experiment. Triangular cantilevers with 160 kHz resonance frequency and 2 N/m spring constant, a V-shaped cantilever NSC16/AIBS (MikroMasch), were used in tapping mode imaging. The imaging was carried out at a scan rate of 1 line/s with 512 data points per line, at a drive current of 10±4 Å. Aliquots of 10 ul of sample were placed on a freshly cleaved mica substrate. After incubation for at least 60 min, the substrate was rinsed with water several times to remove salt and loosely bound protein and dried with high-purity nitrogen. Kinetics of α-synuclein fibrillation can be visualized with the use of this technique, as exemplified in FIG. 46.
# [7] = in vivo; cited from earlier work
# [8] = cited from earlier work
compound,measurement,setting,value
"O=c1cc(-c2cccc(O)c2O)oc2ccccc12 [2′,3′-dihydroxyflavone]",disaggregation of α-synuclein aggregates,α-synuclein [1],best disaggregators
"O=c1c(O)c(-c2ccc(O)c(O)c2)oc2c(O)c(O)cc(O)c12 [3,5,7,8,3′,4′-hexahydroxyflavone]",disaggregation of α-synuclein aggregates,α-synuclein [1],best disaggregators
"O=c1cc(-c2ccc(O)c(O)c2)oc2ccccc12 [3′,4′-dihydroxyflavone]",disaggregation of α-synuclein aggregates,α-synuclein [1],best disaggregators
"O=c1c(O)c(-c2ccc(O)c(O)c2)oc2ccccc12 [3′,4′-dihydroxyflavonol]",disaggregation of α-synuclein aggregates,α-synuclein [1],best disaggregators
"O=c1cc(-c2cc(O)c(O)c(O)c2)oc2cc(O)cc(O)c12 [5,7,3′,4′,5′-pentahydroxyflavone]",disaggregation of α-synuclein aggregates,α-synuclein [1],best disaggregators
"O=c1cc(-c2cccc(O)c2O)oc2ccc(O)cc12 [6,2′,3′-trihydroxyflavone]",disaggregation of α-synuclein aggregates,α-synuclein [1],best disaggregators
"O=c1cc(-c2cc(O)c(O)c(O)c2)oc2cc(O)ccc12 [7,3′,4′,5′-tetrahydroxyflavone]",disaggregation of α-synuclein aggregates,α-synuclein [1],best disaggregators
"O=c1c(-c2ccc(O)c(O)c2)coc2cc(O)ccc12 [7,3′,4′-trihydroxyisoflavone]",disaggregation of α-synuclein aggregates,α-synuclein [1],best disaggregators
"CN1CCc2cccc3c2[C@H]1Cc1ccc(O)c(O)c1-3 [apomorphine, 6αβ-Aporphine-10,11-diol hydrochloride hemihydrate]",Thioflavin T signal / fibril formation by Thioflavin T fluorescence,α-synuclein [2],very low
same,fibril formation by EM,α-synuclein [3],negligible fibril formation
same,"protein soluble after incubation, SDS PAGE of supernatant vs. total mixture",α-synuclein [4],most protein still soluble
same,oligomer formation by SEC HPLC,α-synuclein [5],oligomer formation
c1ccc(N=Nc2ccccc2)cc1 [azobenzene],lagtime for fibrillation,α-synuclein [2],Significant increases in
O=c1cc(-c2ccccc2)oc2cc(O)c(O)c(O)c12 [baicalein],"protein soluble after incubation, SDS PAGE of supernatant vs. total mixture",α-synuclein [4],most protein still soluble
same,fibrils with atomic force microscopy,α-synuclein [6],very few fibrils
C[C@@](Cc1ccc(O)c(O)c1)(NN)C(=O)O [carbidopa],Thioflavin T signal / fibril formation by Thioflavin T fluorescence,α-synuclein [2],negligible fibril formation
same,fibril formation by EM,α-synuclein [3],negligible fibril formation
same,"protein soluble after incubation, SDS PAGE of supernatant vs. total mixture",α-synuclein [4],most protein still soluble
Cn1nnnc1SCC1=C(C(=O)O)N2C(=O)[C@@H](NC(=O)[C@H](O)c3ccccc3)[C@H]2SC1 [cefamandole sodium],lagtime for fibrillation,α-synuclein [2],Significant increases in
O=C(Cc1cccs1)N[C@@H]1C(=O)N2C(C(=O)[O-])=C(C[n+]3ccccc3)CS[C@H]12 [cephaloridine],lagtime for fibrillation,α-synuclein [2],Significant increases in
N.N.[Cl][Pt][Cl] [cisplatin],Thioflavin T signal / fibril formation by Thioflavin T fluorescence,α-synuclein [2],negligible fibril formation
same,fibril formation by EM,α-synuclein [3],negligible fibril formation
CC(CCc1ccc(O)cc1)NCCc1ccc(O)c(O)c1 (stereo not shown) [dobutamine],Thioflavin T signal / fibril formation by Thioflavin T fluorescence,α-synuclein [2],negligible fibril formation
same,fibril formation by EM,α-synuclein [3],negligible fibril formation
same,"protein soluble after incubation, SDS PAGE of supernatant vs. total mixture",α-synuclein [4],most protein still soluble
NCCc1ccc(O)c(O)c1 [dopamine],crossing of the blood-brain barrier,[7],does not cross
CCCCOc1ccc(C(=O)CCN2CCCCC2)cc1 [dyclonine hydrochloride],lagtime for fibrillation,α-synuclein [2],Significant increases in
"CCCCCCCC/C=C/CCCCCCCCOP(=O)([O-])OCC[N+](C)(C)C [elaidyphosphocholine (antineoplastic), elaidylphosphocholine]",Thioflavin T signal / fibril formation by Thioflavin T fluorescence,α-synuclein [2],negligible fibril formation
same,fibril formation by EM,α-synuclein [3],negligible fibril formation
same,"protein soluble after incubation, SDS PAGE of supernatant vs. total mixture",α-synuclein [4],most protein still soluble
O=C(O[C@@H]1Cc2c(O)cc(O)cc2O[C@@H]1c1cc(O)c(O)c(O)c1)c1cc(O)c(O)c(O)c1 [epigallocatechin gallate],disaggregation of α-synuclein aggregates,α-synuclein [1],best disaggregators
O=c1c(O)c(-c2ccc(O)c(O)c2)oc2cc(O)ccc12 [fisetin],disaggregation of α-synuclein aggregates,α-synuclein [1],best disaggregators
CC(C)NCC(O)c1ccc(O)c(O)c1 (stereo not shown) [isoproterenol],Thioflavin T signal / fibril formation by Thioflavin T fluorescence,α-synuclein [2],very low
same,fibril formation by EM,α-synuclein [3],Few fibrils
same,protein in the supernatant after centrifugation,"α-synuclein [4]; FIG. 1B, control samples <15%",> 90%
"N[C@@H](Cc1ccc(O)c(O)c1)C(=O)O [l-dopa, (−)-L-a-amino-b-(3,4-dihydroxybenzene)propanoic acid]",solubility in water,[8],slightly soluble
same,crossing of the blood-brain barrier,[7],does cross
Cc1c(OCC(F)(F)F)ccnc1C[S+]([O-])c1nc2ccccc2[nH]1 (stereo not shown) [lansoprazole],lagtime for fibrillation,α-synuclein [2],Significant increases in
O=c1cc(-c2ccc(O)c(O)c2)oc2cc(O)cc(O)c12 [luteolin],disaggregation of α-synuclein aggregates,α-synuclein [1],best disaggregators
CCCCOc1ccc(OCCCN2CCOCC2)cc1 [pramoxine hydrochloride],lagtime for fibrillation,α-synuclein [2],Significant increases in
O=C1c2ccccc2C(=O)c2c(O)c(O)cc(O)c21 [purpurin],lagtime for fibrillation,α-synuclein [2],Significant increases in
Oc1cccc(O)c1O [pyrogallol],disaggregation of α-synuclein aggregates,α-synuclein [1],best disaggregators
O=C1c2ccc(O)c(O)c2C(=O)c2c(O)ccc(O)c21 [quinalizarin],Thioflavin T signal / fibril formation by Thioflavin T fluorescence,α-synuclein [2],negligible fibril formation
same,fibril formation by EM,α-synuclein [3],negligible fibril formation
same,"protein soluble after incubation, SDS PAGE of supernatant vs. total mixture",α-synuclein [4],most protein still soluble
NC(=O)c1ccc[n+]([C@@H]2O[C@H](COP(=O)([O-])OP(=O)(O)OC[C@H]3O[C@@H](n4cnc5c(N)ncnc54)[C@H](OP(=O)(O)O)[C@@H]3O)[C@@H](O)[C@H]2O)c1 [sodium beta-nicotinamide adenine dinucleotide phosphate],lagtime for fibrillation,α-synuclein [2],Significant increases in
chlorophyllide Cu complex Na salt,Thioflavin T signal / fibril formation by Thioflavin T fluorescence,α-synuclein [2],negligible fibril formation
same,fibril formation by EM,α-synuclein [3],negligible fibril formation
same,"protein soluble after incubation, SDS PAGE of supernatant vs. total mixture",α-synuclein [4],most protein still soluble
pyrogallin,Thioflavin T signal / fibril formation by Thioflavin T fluorescence,α-synuclein [2],negligible fibril formation
same,fibril formation by EM,α-synuclein [3],negligible fibril formation
same,"protein soluble after incubation, SDS PAGE of supernatant vs. total mixture",α-synuclein [4],most protein still soluble
